Our source for the EC50 values is patent publication US9920010B2, “CXCR7 receptor modulators” (IDORSIA PHARMACEUTICALS LTD, priority 2013, dated 2018).

Structures are written as SMILES.

The assay concerns the target T1, CXCR7 (Homo sapiens, UniProt P25106).
T1 construct: host or cells: CHO-K1 (PathHunter CHO-K1 CXCR7 b-arrestin cell line, stably transfected)
Nature of the assay: PathHunter CHO-K1 CXCR7 b-arrestin recruitment assay (CXCR7 agonistic activity). Type of assay: cell-based. The conditions noted are these: PathHunter CHO-K1 CXCR7 b-arrestin cell line. The gist of the method: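 Stable CHO-K1 line with C-terminally ProLink-tagged CXCR7 and β-arrestin 2–EA fusion; β-arrestin recruitment restores β-gal activity, read by chemiluminescence after 1 h RT detection. Cells seeded 24 h, starved in OPTIMEM 3–4 h, exposed to compounds 90 min at 37 °C in HBSS/HEPES/BSA. Geometric-mean EC50 from repeated measurements.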
(Activated receptors often draw arrestin, which recruitment assays turn into a signal.)

T1 sequence (P25106 whole entry): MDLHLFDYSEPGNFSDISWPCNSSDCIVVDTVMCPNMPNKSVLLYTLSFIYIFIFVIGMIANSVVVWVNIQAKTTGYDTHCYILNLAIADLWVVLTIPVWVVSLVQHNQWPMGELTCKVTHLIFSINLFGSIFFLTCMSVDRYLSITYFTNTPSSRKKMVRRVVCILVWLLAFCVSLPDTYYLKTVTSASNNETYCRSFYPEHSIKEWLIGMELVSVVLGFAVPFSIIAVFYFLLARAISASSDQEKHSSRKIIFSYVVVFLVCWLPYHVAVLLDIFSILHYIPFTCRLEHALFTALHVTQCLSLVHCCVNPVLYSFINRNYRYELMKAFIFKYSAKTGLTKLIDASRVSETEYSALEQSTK
T1 sequence (P32121 whole entry partner): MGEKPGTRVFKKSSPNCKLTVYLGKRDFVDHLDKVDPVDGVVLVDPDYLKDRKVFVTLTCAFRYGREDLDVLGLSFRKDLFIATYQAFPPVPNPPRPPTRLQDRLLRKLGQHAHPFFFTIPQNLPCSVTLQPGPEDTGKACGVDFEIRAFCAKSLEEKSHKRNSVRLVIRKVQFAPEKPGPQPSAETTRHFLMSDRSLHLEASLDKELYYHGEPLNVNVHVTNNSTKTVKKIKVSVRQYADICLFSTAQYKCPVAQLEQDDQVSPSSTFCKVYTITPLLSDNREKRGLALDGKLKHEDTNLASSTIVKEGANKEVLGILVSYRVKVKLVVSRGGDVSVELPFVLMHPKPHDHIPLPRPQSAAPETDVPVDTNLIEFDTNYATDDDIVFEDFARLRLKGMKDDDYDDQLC

The term EC50 denotes the concentration giving half of the maximal effect. The low end stands for an effect from little substance, the high end for a need for much substance. With `CNCCN(Cc1ncccc1C(F)(F)F)C(=O)CNc1cccc2c1CCN(CC1CC1)C2` [compound 437, 2-(2-Cyclopropylmethyl-1,2,3,4-tetrahydro-isoquinolin-5-ylamino)-N-(2-methylamino-ethyl)-N-(3-trifluoromethyl-pyridin-2-ylmethyl)-acetamide], the EC50 was determined as 5 nM.

`CCC(=O)N1CCc2c(cccc2OCC(=O)N(CCN(C)C)Cc2ccccc2)C1` [compound 169, N-Benzyl-N-(2-dimethylamino-ethyl)-2-(2-propionyl-1,2,3,4-tetrahydro-isoquinolin-5-yloxy)-acetamide] came in with an EC50 of 42 nM.

With `CCN1CCc2cccc(NCC(=O)N(CCC#N)Cc3ccccc3C(F)(F)F)c2C1` [compound 516], the EC50 was 181 nM.

In the case of `CNCCN(Cc1ccccc1C(F)(F)F)C(=O)CNc1cccc2c1CCN(C(=O)OCCF)C2` [compound 400, 5-({[(2-Methylamino-ethyl)-(2-trifluoromethyl-benzyl)-carbamoyl]-methyl}-amino)-3,4-dihydro-1H-isoquinoline-2-carboxylic acid 2-fluoro-ethyl ester], the EC50 came out at 31 nM.

Take `CCC(=O)N1CCc2c(cccc2NCC(=O)N(CCN(C)C)Cc2cccc(F)c2)C1` [Example 21, N-(2-Dimethylamino-ethyl)-N-(3-fluoro-benzyl)-2-(2-propionyl-1,2,3,4-tetrahydro-isoquinolin-5-ylamino)-acetamide]: the response was half-maximal at 39 nM (EC50).

`CC1c2cccc(NCC(=O)N(CCN(C)C)Cc3ccccc3C(F)(F)F)c2CCN1CC1CC1` (single isomer, unassigned) [Example 211b, (R)- or (S)-2-((2-(Cyclopropylmethyl)-1-methyl-1,2,3,4-tetrahydroisoquinolin-5-yl)amino)-N-(2-(dimethylamino)ethyl)-N-(2-(trifluoromethyl)benzyl)acetamide] displayed an EC50 of 6 nM.

`CN(C)CCN(Cc1ccccc1C(F)(F)F)C(=O)CNc1cccc2c1CN(C)CC2` [compound 564, N-(2-Dimethylamino-ethyl)-2-(2-methyl-1,2,3,4-tetrahydro-isoquinolin-8-ylamino)-N-(2-trifluoromethyl-benzyl)-acetamide] showed a concentration for a half-maximal effect (EC50) of 17 nM.

On to `CC(C1CC1)N1CCc2c(cccc2NCC(=O)N(CCN(C)C)Cc2ccccc2C(F)(F)F)C1` (stereo not shown) [Example 357, 2-[2-(1-Cyclopropyl-ethyl)-1,2,3,4-tetrahydro-isoquinolin-5-ylamino]-N-(2-dimethylamino-ethyl)-N-(2-trifluoromethyl-benzyl)-acetamide], for which the midpoint of the response, the EC50, lay at 4 nM.

Consider `CN(C)CCN(Cc1ccccc1)C(=O)COc1cccc2c1CN(C)CC2` [Example 201, N-Benzyl-N-(2-dimethylamino-ethyl)-2-(2-methyl-1,2,3,4-tetrahydro-isoquinolin-8-yloxy)-acetamide], for which the EC50 is 27 nM.

In the case of `CNCCN(Cc1ccccc1C(F)(F)F)C(=O)CNc1cccc2c1CCN(CC1CC1)C2C` (racemic) [compound 382], a half-maximal response (EC50) required 8 nM.

In turn, `CCN1CCc2cccc(NCC(=O)N(CCN(C)C)Cc3ccc(C(F)(F)F)cc3)c2C1` [compound 506] gave an EC50 of 155 nM.

In turn, `C/C(=C\c1ccccc1)CN(CCC1CCCN1C)C(=O)CNc1cccc2c1CCN(CC1CC1)C2` (racemic) [Example 61, rac-2-(2-Cyclopropylmethyl-1,2,3,4-tetrahydro-isoquinolin-5-ylamino)-N-((E)-2-methyl-3-phenyl-allyl)-N-[2-(1-methyl-pyrrolidin-2-yl)-ethyl]-acetamide] returned an EC50 of 5 nM.

The compound `CC(C)CCN(Cc1ccccc1)C(=O)CNc1cccc2c1CCN(C)C2` [compound 132] gave an EC50 of 130 nM.

The compound `COCCN1CCc2c(/C=C/C(=O)N(CCN3CCC(F)(F)CC3)Cc3ncccc3Cl)cccc2C1` [Example 326, (E)-N-(3-Chloro-pyridin-2-ylmethyl)-N-[2-(4,4-difluoro-piperidin-1-yl)-ethyl]-3-[2-(2-methoxy-ethyl)-1,2,3,4-tetrahydro-isoquinolin-5-yl]-acrylamide] yielded an EC50 of 184 nM.

`CN(C)CCN(Cc1ccccc1)C(=O)CNc1cccc2c1CN(C(=O)c1ccccc1)CC2` [compound 195, 2-(2-Benzoyl-1,2,3,4-tetrahydro-isoquinolin-8-ylamino)-N-benzyl-N-(2-dimethylamino-ethyl)-acetamide] had an EC50 of 12 nM.

Compound `CN(C)CCN(Cc1ccccc1C(F)(F)F)C(=O)CNc1cccc2c1CN(C(=O)N(C)C)CC2` [Example 546, 8-({[(2-Dimethylamino-ethyl)-(2-trifluoromethyl-benzyl)-carbamoyl]-methyl}-amino)-3,4-dihydro-1H-isoquinoline-2-carboxylic acid dimethylamide] had an EC50 of 8 nM.

The compound `CCN1CCc2c(cccc2N(CC)CC(=O)N(CCN(C)C)Cc2ccccc2)C1` [Example 102, N-Benzyl-N-(2-dimethylamino-ethyl)-2-[ethyl-(2-ethyl-1,2,3,4-tetrahydro-isoquinolin-5-yl)-amino]-acetamide] showed a concentration for a half-maximal effect (EC50) of 370 nM.

In turn, `O=C(CNc1cccc2c1CN(CC1CC1)CC2)N(CCN1CCC(F)(F)CC1)Cc1ncccc1C(F)(F)F` [compound 476] displayed an EC50 of 15 nM.

On to `C#CCN1CCc2c(cccc2NCC(=O)N(CCN(C)C)Cc2ccccc2C(F)(F)F)C1` [Example 308, N-(2-Dimethylamino-ethyl)-2-(2-prop-2-ynyl-1,2,3,4-tetrahydro-isoquinolin-5-ylamino)-N-(2-trifluoromethyl-benzyl)-acetamide], for which the midpoint of the response, the EC50, lay at 28 nM.

With `CN(C)CCN(Cc1ccccc1C(F)(F)F)C(=O)CNc1cccc2c1CN(CC1CCCCC1)CC2` [compound 554, 2-(2-Cyclohexylmethyl-1,2,3,4-tetrahydro-isoquinolin-8-ylamino)-N-(2-dimethylamino-ethyl)-N-(2-trifluoromethyl-benzyl)-acetamide], the midpoint of the response, the EC50, lay at 5 nM.

`CCN1CCc2cccc(NCC(=O)N(CCN(C)C)C(C)c3ccccc3C(F)(F)F)c2C1` (racemic) [compound 522]: it took 140 nM to reach a half-maximal effect (EC50).

In turn, `O=C(CNc1cccc2c1CCN(CC1CC1)C2)N(Cc1ccccc1C(F)(F)F)CC1(O)CCCC1` [Example 243, 2-(2-Cyclopropylmethyl-1,2,3,4-tetrahydro-isoquinolin-5-ylamino)-N-(1-hydroxy-cyclopentylmethyl)-N-(2-trifluoromethyl-benzyl)-acetamide] had an EC50 of 8 nM.

Take `COCCN1CCc2c(CCC(=O)N(CCN(C)C(=O)OC(C)(C)C)Cc3ccccc3C(F)(F)F)cccc2C1` [Example 337, {2-[{3-[2-(2-Methoxy-ethyl)-1,2,3,4-tetrahydro-isoquinolin-5-yl]-propionyl}-(2-trifluoromethyl-benzyl)-amino]-ethyl}-methyl-carbamic acid tert-butyl ester]: the EC50 is 429 nM.

Consider `CNC(=O)N1CCc2cccc(NCC(=O)N(CCN(C)C)Cc3ccccc3C(F)(F)F)c2C1` [Example 547, 8-({[(2-Dimethylamino-ethyl)-(2-trifluoromethyl-benzyl)-carbamoyl]-methyl}-amino)-3,4-dihydro-1H-isoquinoline-2-carboxylic acid methylamide], for which a half-maximal effect (EC50) was put at 15 nM.

As to `CCCN1CCc2cccc(NCC(=O)N(CCN(C)C)Cc3ccccc3C(F)(F)F)c2C1` [compound 556, N-(2-Dimethylamino-ethyl)-2-(2-propyl-1,2,3,4-tetrahydro-isoquinolin-8-ylamino)-N-(2-trifluoromethyl-benzyl)-acetamide], the EC50 worked out at 8 nM.

Take `CC(C)C(=O)N1CCc2c(cccc2OCC(=O)N(CCN(C)C)Cc2ccccc2)C1` [compound 170]: the EC50 worked out at 74 nM.

`O=C(CNc1cccc2c1CCN(CC1CC1)C2)N(Cc1ccccc1C(F)(F)F)C1CCC(O)CC1` (stereo not shown) [Example 222, 2-(2-Cyclopropylmethyl-1,2,3,4-tetrahydro-isoquinolin-5-ylamino)-N-(4-hydroxy-cyclohexyl)-N-(2-trifluoromethyl-benzyl)-acetamide] came in with an EC50 of 27 nM.

The compound `CCC(=O)N1CCc2c(cccc2NCC(=O)N(CCN(C)C)Cc2cccc(OC)c2)C1` [Example 29, N-(2-Dimethylamino-ethyl)-N-(3-methoxy-benzyl)-2-(2-propionyl-1,2,3,4-tetrahydro-isoquinolin-5-ylamino)-acetamide] returned an EC50 of 174 nM.

The compound `CN(C)CCN(Cc1ccccc1C(F)(F)F)C(=O)CNc1cccc2c1CCN(CC1CCC1)C2` [Example 361, 2-(2-Cyclobutylmethyl-1,2,3,4-tetrahydro-isoquinolin-5-ylamino)-N-(2-dimethylamino-ethyl)-N-(2-trifluoromethyl-benzyl)-acetamide] registered an EC50 of 6 nM.

With `CN1CCC(N(Cc2ccccc2C(F)(F)F)C(=O)CNc2cccc3c2CN(CC2CC2)CC3(C)C)CC1` [compound 200], a half-maximal effect (EC50) was put at 235 nM.

Compound `O=C(/C=C/c1cccc2c1CCN(C(=O)[C@H]1C[C@H]1F)C2)N(CCN1CCC(F)(F)CC1)Cc1ncccc1Cl` (racemic) [Example 332, rac-(E)-N-(3-Chloro-pyridin-2-ylmethyl)-N-[2-(4,4-difluoro-piperidin-1-yl)-ethyl]-3-[2-((1R*,2R*)-2-fluoro-cyclopropanecarbonyl)-1,2,3,4-tetrahydro-isoquinolin-5-yl]-acrylamide] had an EC50 of 96 nM.

As to `CN(C)CCN(Cc1ccccc1C(F)(F)F)C(=O)CNc1cccc2c1CN(C(N)=O)CC2` [compound 562], the EC50 was found to be 100 nM.

`C#CCN(C)CCN(Cc1ccccc1C(F)(F)F)C(=O)CNc1cccc2c1CCN(CC1CC1)C2` [Example 246, 2-(2-Cyclopropylmethyl-1,2,3,4-tetrahydro-isoquinolin-5-ylamino)-N-[2-(methyl-prop-2-ynyl-amino)-ethyl]-N-(2-trifluoromethyl-benzyl)-acetamide] yielded an EC50 of 14 nM.

`CNCCN(Cc1ccccc1C(F)(F)F)C(=O)CNc1cccc2c1CCN(C(=O)CC(C)(C)C)C2` [compound 393]: the EC50 worked out at 110 nM.
